The values below come from ChEMBL document CHEMBL5357027, “Annonaceous Acetogenins Synergistically Inhibit Hepatocellular Carcinoma with Sorafenib” (J Nat Prod, 2024).

The source made the active and inactive calls. The rule behind the calls is not given here.

In assay [1] the test system is HepG2. The experiment in a line: Cytotoxicity against human HepG2 cells assessed as cell growth inhibition incubated for 48 hrs by MTT assay. It counts as functional, cell-based. The following applies: HepG2, 48 h. (In general: Formazan colour is commonly taken as a measure of viable cells.)
For assay [2], the system named is Huh-7. The experiment in a line: Cytotoxicity against human Huh-7 cells assessed as cell growth inhibition incubated for 48 hrs by MTT assay. In kind it is functional, cell-based. The following applies: Huh-7, 48 h.
Assay [3] has as its system MHCC97H. Kind of assay: Cytotoxicity against human MHCC97H cells assessed as cell growth inhibition incubated for 48 hrs by MTT assay. It counts as functional, cell-based.
Assay [4] relates to HCCLM3. Kind of assay: Cytotoxicity against human HCCLM3 cells assessed as cell growth inhibition incubated for 48 hrs by MTT assay. The following applies: HCCLM3, 48 h. In kind it is functional, cell-based.
For assay [5], the system named is HCCLM3. The experiment in a line: Inhibition of mitochondrial respiratory chain complex I in human HCCLM3 incubated for 24 hrs. In kind it is cell-based.
For assay [6], the system named is HepG2. The experiment in a line: Synergistic cytotoxicity against human HepG2 cells assessed as cell growth inhibition by measuring synergy score at 1 to 16 uM incubated for 48 hrs in presence of sorafenib at 1 to 16 uM by MTT assay. It counts as functional. The following applies: dose 1-16 µM.
Assay [7] relates to Huh-7. Kind of assay: Synergistic cytotoxicity against human Huh-7 cells assessed as cell growth inhibition by measuring synergy score at 1 to 16 uM incubated for 48 hrs in presence of sorafenib at 1 to 16 uM by MTT assay. In kind it is functional. The following applies: dose 1-16 µM.
The subject of assay [8] is MHCC97H. Kind of assay: Synergistic cytotoxicity against human MHCC97H cells assessed as cell growth inhibition by measuring synergy score at 1 to 16 uM incubated for 48 hrs in presence of sorafenib at 1 to 16 uM by MTT assay. The following applies: dose 1-16 µM. In kind it is functional.
In assay [9] the test system is HCCLM3. The experiment in a line: Synergistic cytotoxicity against human HCCLM3 cells assessed as cell growth inhibition by measuring synergy score at 1 to 16 uM incubated for 48 hrs in presence of sorafenib at 1 to 16 uM by MTT assay. In kind it is functional. The following applies: dose 1-16 µM.
The subject of assay [10] is HepG2. Kind of assay: Inhibition of mitochondrial function in human HepG2 cells assessed as reduction in ATP production at 16 uM incubated for 48 hrs relative to control. In kind it is functional. Set-up: scale not given: the % may be the effect or the level left.
In assay [11] the test system is Huh-7. The experiment in a line: Inhibition of mitochondrial function in human Huh-7 cells assessed as reduction in ATP production at 16 uM incubated for 48 hrs relative to control. In kind it is functional. Set-up: scale not given: the % may be the effect or the level left.
In assay [12] the test system is MHCC97H. Kind of assay: Inhibition of mitochondrial function in human MHCC97H cells assessed as reduction in ATP production at 16 uM incubated for 48 hrs relative to control. It counts as functional. Details: scale not given: the % may be the effect or the level left.
The test system of assay [13] is HCCLM3. The experiment in a line: Inhibition of mitochondrial function in human HCCLM3 cells assessed as reduction in ATP production at 16 uM incubated for 48 hrs relative to control. Details: scale not given: the % may be the effect or the level left. It counts as functional.
Assay [14] has as its system HCCLM3. The experiment in a line: Induction of apoptosis in human HCCLM3 cells assessed as necrotic cells at 4 uM incubated for 48 hrs by Annexin V/FITC-PI staining based flow cytometry (reference value: 3.33%). It counts as functional. A general note: A flow cytometer gives signals particle by particle.
Assay [15] has as its system HCCLM3. The experiment in a line: Induction of apoptosis in human HCCLM3 cells assessed as late apoptotic cells at 4 uM incubated for 48 hrs by Annexin V/FITC-PI staining based flow cytometry (reference value: 0.07%). It counts as functional.
The test system of assay [16] is HCCLM3. Kind of assay: Induction of apoptosis in human HCCLM3 cells assessed as early apoptotic cells at 4 uM incubated for 48 hrs by Annexin V/FITC-PI staining based flow cytometry (reference value: 0.05%). It counts as functional.
The subject of assay [17] is HCCLM3. The experiment in a line: Induction of apoptosis in human HCCLM3 cells assessed as viable cells at 4 uM incubated for 48 hrs by Annexin V/FITC-PI staining based flow cytometry (reference value: 96.55%). In kind it is functional. The following applies: read-out: Activity.
For assay [18], the system named is HepG2. The experiment in a line: Synergistic inhibition of mitochondrial function in human HepG2 cells assessed as reduction in intracellular ATP level at 8 uM incubated for 48 hrs in presence of 16 uM sorafenib. In kind it is functional, cell-based.
Assay [19] relates to Huh-7. The experiment in a line: Synergistic inhibition of mitochondrial function in human Huh-7 cells assessed as reduction in intracellular ATP level at 8 uM incubated for 48 hrs in presence of 16 uM sorafenib. In kind it is functional, cell-based.
Assay [20] relates to MHCC97H. The experiment in a line: Synergistic inhibition of mitochondrial function in human MHCC97H cells assessed as reduction in intracellular ATP level at 8 uM incubated for 48 hrs in presence of 16 uM sorafenib. It counts as functional, cell-based.
Assay [21] deals with HCCLM3. Kind of assay: Synergistic inhibition of mitochondrial function in human HCCLM3 cells assessed as reduction in intracellular ATP level at 8 uM incubated for 48 hrs in presence of 16 uM sorafenib. It counts as functional, cell-based.
In assay [22] the test system is HCCLM3. Kind of assay: Induction of apoptosis in human HCCLM3 cells assessed as viable cells at 4 uM incubated for 48 hrs in presence of 4uM sorafenib by Annexin V/FITC-PI staining based flow cytometry (reference value: 96.55%). In kind it is functional. The following applies: read-out: Activity.
The test system of assay [23] is HCCLM3. The experiment in a line: Induction of apoptosis in human HCCLM3 cells assessed as early apoptotic cells at 4 uM incubated for 48 hrs in presence of 4uM sorafenib by Annexin V/FITC-PI staining based flow cytometry (reference value: 0.05%). It counts as functional.
Assay [24] has as its system HCCLM3. Kind of assay: Induction of apoptosis in human HCCLM3 cells assessed as late apoptotic cells at 4 uM incubated for 48 hrs in presence of 4uM sorafenib by Annexin V/FITC-PI staining based flow cytometry (reference value: 0.07%). In kind it is functional.
For assay [25], the system named is HCCLM3. The experiment in a line: Induction of apoptosis in human HCCLM3 cells assessed as necrotic cells at 4 uM incubated for 48 hrs in presence of 4uM sorafenib by Annexin V/FITC-PI staining based flow cytometry (reference value: 3.33%). It counts as functional.
In assay [26] the test system is HCCLM3. Kind of assay: Induction of apoptosis in human HCCLM3 cells assessed as apoptotic ratio at 4 uM incubated for 48 hrs in presence of 4uM sorafenib by Annexin V/FITC-PI staining based flow cytometry relative to control. It counts as functional.
Assay [27] deals with HepG2. The experiment in a line: Inhibition of mitochondrial function in human HepG2 cells assessed as reduction in ATP production at 8 uM incubated for 48 hrs. In kind it is functional, cell-based.
The test system of assay [28] is Huh-7. Kind of assay: Inhibition of mitochondrial function in human Huh-7 cells assessed as reduction in ATP production at 8 uM incubated for 48 hrs. It counts as functional, cell-based.
The test system of assay [29] is MHCC97H. The experiment in a line: Inhibition of mitochondrial function in human MHCC97H cells assessed as reduction in ATP production at 8 uM incubated for 48 hrs. In kind it is functional, cell-based.
For assay [30], the system named is HCCLM3. Kind of assay: Inhibition of mitochondrial function in human HCCLM3 cells assessed as reduction in ATP production at 8 uM incubated for 48 hrs. In kind it is functional, cell-based.

For `CCCCCCCCCCCC[C@@H](O)[C@H]1CC[C@H]([C@H](O)CCCCC(=O)CCCCC[C@@H](O)CC2=C[C@H](C)OC2=O)O1` [ANNONACINONE], the IC50 with HepG2 [1], in the assay on Huh-7 [2], with MHCC97H [3] and in the assay on HCCLM3 [4] was 15.5 µM throughout. Besides, the inhibition entry with HCCLM3 [5] is “Active”. Besides, the Activity with HepG2 [6], in the assay on Huh-7 [7], in the assay on MHCC97H [8] and with HCCLM3 [9] was 3.4 in each case.
As to `CCCCCCCCCCCC[C@H](O)[C@@H]1CC[C@H]([C@H](O)CCCC[C@@H](O)CCCCC[C@@H](O)CC2=C[C@H](C)OC2=O)O1`, the IC50 in the assay on HepG2 [1], in the assay with Huh-7 [2], in the assay on MHCC97H [3] and in the assay on HCCLM3 [4] was 7.1 µM throughout. For the same compound, the inhibition entry in the assay with HCCLM3 [5] is “Active”. For the same compound, the Activity in the assay with HepG2 [6], in the assay on Huh-7 [7], in the assay with MHCC97H [8] and with HCCLM3 [9] was 2.3 throughout.
For `CNC(=O)c1cc(Oc2ccc(NC(=O)Nc3ccc(Cl)c(C(F)(F)F)c3)cc2)ccn1` [SORAFENIB], the Activity in the assay with HepG2 [10] amounted to 69.5%; in the assay on Huh-7 [11] it was 41.1%; in the assay on MHCC97H [12] it was 54.4%; in the assay with HCCLM3 [13], 77.4%; in the assay with HCCLM3 [14], 1.57%; with HCCLM3 [15] it was 0.67%. Moreover, the Activity in the assay on HCCLM3 [16] was 3.59%. For the same compound, the viability at 4 µM in the assay with HCCLM3 [17] came out at 94.2%.
Regarding `CCCCCCCCCCCC[C@H](O)[C@@H]1CC[C@H]([C@H](O)CCCCC(=O)CCCCC[C@@H](O)CC2=C[C@H](C)OC2=O)O1`, the IC50 in the assay on HepG2 [1], in the assay on Huh-7 [2], in the assay with MHCC97H [3] and with HCCLM3 [4] was 15 µM in each case. Also, in the assay with HCCLM3 [5], the inhibition entry was “Active”. The Activity in the assay on HepG2 [6], in the assay on Huh-7 [7], with MHCC97H [8] and in the assay with HCCLM3 [9] was 0.7 in each case.
For `CCCCCCCCCC[C@H](O)[C@@H](O)C[C@H](O)[C@@H]1CC[C@@H](CCCCCCCCCC[C@@H](O)CC2=C[C@H](C)OC2=O)O1`, the IC50 in the assay with HepG2 [1], with Huh-7 [2], in the assay on MHCC97H [3] and with HCCLM3 [4] was above 50 µM throughout. Further, the inhibition result in the assay on HCCLM3 [5], in the assay with HepG2 [18], in the assay on Huh-7 [19], in the assay on MHCC97H [20], in the assay on HepG2 [27] and with Huh-7 [28] was “Active” each time. For the same compound, the inhibition result in the assay with MHCC97H [29] and in the assay with HCCLM3 [30] was “Active” in each case. Moreover, in the assay with HCCLM3 [21], the outcome was Active. Moreover, the Activity in the assay with HCCLM3 [14] worked out at 1.36%; with HCCLM3 [15], 0.17%; in the assay on HCCLM3 [16], 1.27%; with HCCLM3 [23] it was 8.66%; with HCCLM3 [24], 6.45%; in the assay with HCCLM3 [25] it was 4.44%. The Activity in the assay on HCCLM3 [26] was 11.6%; in the assay on HepG2 [6], 3.7; with Huh-7 [7] it was 7.1; with MHCC97H [8], 17; in the assay on HCCLM3 [9], 13.9. In addition, the viability at 4 µM was 97.2% with HCCLM3 [17] and 80.5% with HCCLM3 [22].
Consider `CCCCCCCCCC[C@@H](O)[C@H](O)C[C@@H](O)[C@H]1CC[C@H](CCCCCCCCCC[C@@H](O)CC2=C[C@H](C)OC2=O)O1`, for which the IC50 with HepG2 [1], in the assay on Huh-7 [2], with MHCC97H [3] and in the assay with HCCLM3 [4] was above 50 µM each time. Moreover, the inhibition result with HCCLM3 [5] was “Active”. Moreover, the Activity in the assay with HepG2 [6], in the assay on Huh-7 [7], with MHCC97H [8] and with HCCLM3 [9] was 2.7 each time.
`CCCCCCCCCCCC[C@@H](O)[C@H]1CC[C@H]([C@H](O)CCCC(O)CCCCCC[C@@H](O)CC2=C[C@H](C)OC2=O)O1` (some centres undefined): the IC50 in the assay on HepG2 [1], with Huh-7 [2], with MHCC97H [3] and in the assay with HCCLM3 [4] was 10 µM each time. Besides, the inhibition result in the assay with HCCLM3 [5] is “Active”. The Activity in the assay on HepG2 [6], in the assay on Huh-7 [7], with MHCC97H [8] and in the assay with HCCLM3 [9] was 2 each time.
